Laboratory results reported in patent US8802664B2 (Bioproject, priority 2010, dated 2014).
Structures can show the parent of a compound that is named as a salt.

| SMILES | melting point |
| --- | --- |
| CN1CCC(OC(c2nc3ccccc3s2)c2cc(OC(F)(F)F)ccc2F)CC1 (stereo not drawn) (as salt: oxalate) [Example 526] | 95 °C |
| CC(=O)c1ccc(-c2cccc(C(OC3CCN(C)CC3)c3nc4ccccc4[nH]3)c2)cc1 (stereo not drawn) (as salt: oxalate) [Example 108, 1-{3′-[(1H-benzimidazol-2-yl)(1-methylpiperidin-4-yloxy)methyl]biphenyl-4-yl}ethanone] | 115 °C |
| COc1cc(F)cc(C(NC2CCN(C)CC2)c2nc3ccccc3s2)c1 (stereo not drawn) (as salt: oxalate) [Example 43, [benzothiazol-2-yl(3-fluoro-5-methoxyphenyl)methyl](1-methylpiperidin-4-yl)amine] | 157 °C |
| CN1CCC(OC(c2cccc(OC(F)(F)F)c2)c2nc3ccccc3[nH]2)CC1 (stereo not drawn) (as salt: oxalate) [Example 280, 2-[(1-methylpiperidin-4-yloxy)(3-trifluoromethoxy-phenyl)methyl]-1H-benzimidazole] | 172 °C |
| CN1CCC(OC(c2cccc(C#CCCCn3cccn3)c2)c2nc3ccccc3[nH]2)CC1 (stereo not drawn) (as salt: oxalate) [Example 410, 2-{(1-methylpiperidin-4-yloxy)[3-(5-pyrazol-1-yl-pent-1-ynyl)phenyl]methyl}-1H-benzimidazole] | 115 °C |
| CN1CCC(OC(c2cccc(F)c2)c2nc3ccccc3s2)CC1 (stereo not drawn) (as salt: oxalate) [Example 5] | 167 to 170 °C |
| CN1CCC(OC(c2cccc(N3CCC(O)C3)c2)c2nc3ccccc3s2)CC1 (stereo not drawn) (as salt: oxalate) [Example 406, 1-{3-[benzothiazol-2-yl(1-methylpiperidin-4-yloxy)methyl]phenyl}pyrrolidin-3-ol] | 103 °C |
| CN1CCC(OC(c2cccc(SCCCCN)c2)c2nc3cc(F)c(F)c(F)c3[nH]2)CC1 (stereo not drawn) (as salt: oxalate) [Example 493] | 110 °C |
| CN1CCC(OC(c2cccc(N3CCC(N)C3)c2)c2nc3ccccc3s2)CC1 (stereo not drawn) (as salt: oxalate) [Example 429, 1-{3-[benzothiazol-2-yl(1-methylpiperidin-4-yloxy)methyl]phenyl}pyrrolidin-3-ylamine] | 137 °C |
| CN1CCC(OC(c2cccc(C#CCCCCN)c2)c2nc3ccccc3s2)CC1 (stereo not drawn) (as salt: oxalate) [Example 319, 6-{3-[benzothiazol-2-yl(1-methylpiperidin-4-yloxy)methyl]phenyl}hex-5-ynylamine] | 135 °C |
| CN1CCC(OC(c2cccc(SCCCCN)c2)c2nc3cc(F)c(F)cc3[nH]2)CC1 (stereo not drawn) (as salt: oxalate) [Example 495] | 180 °C |
| CN1CCC(OC(c2cccc(OCCCN3CCOCC3)c2)c2nc3ccccc3s2)CC1 (stereo not drawn) (as salt: oxalate) [Example 350, 2-{(1-methylpiperidin-4-yloxy)[3-(3-morpholin-4-yl-propoxy)phenyl]methyl}benzothiazole] | 105 °C |
| CCCCOc1cccc(C(OC2CCN(C)CC2)c2nc3ccccc3s2)c1 (stereo not drawn) (as salt: oxalate) [Example 92, 2-[(3-butoxyphenyl)(1-methylpiperidin-4-yloxy)methyl]benzothiazole] | 135 °C |
| CN1CCC(OC(c2cccc(OCCCCN3CCOCC3)c2)c2nc3ccccc3[nH]2)CC1 (stereo not drawn) (as salt: oxalate) [Example 332, 2-{(1-methylpiperidin-4-yloxy)[3-(4-morpholin-4-yl-butoxy)phenyl]methyl}-1H-benzimidazole] | 85 °C |
| COc1ccc(C(OC2CCN(C)CC2)c2nc3ccccc3s2)cc1 (stereo not drawn) (as salt: hydrochloride) [Example 14, 2-[(4-methoxyphenyl)(1-methylpiperidin-4-yloxy)methyl]benzothiazole] | 72 °C |
| CN1CCC(OC(c2cccc(C#CCNC(=N)N)c2)c2nc3ccccc3s2)CC1 (stereo not drawn) (as salt: hydrochloride) [Example 373, N-(3-{3-[benzothiazol-2-yl(1-methylpiperidin-4-yloxy)methyl]phenyl}prop-2-ynyl)guanidine] | 125 °C |
| C=CCCCOc1cccc(C(OC2CCN(C)CC2)c2nc3ccccc3s2)c1 (stereo not drawn) (as salt: oxalate) [Example 168, 2-[(1-methylpiperidin-4-yloxy)(3-pent-4-enyloxy-phenyl)methyl]benzothiazole] | 75 °C |
| CN1CCC(OC(c2nc3ccccc3[nH]2)c2cc(C#CCCCN)ccc2F)CC1 (stereo not drawn) (as salt: oxalate) [Example 442] | 139 °C |
| CN1CCC(NC(c2cccc(OCc3ccccc3F)c2)c2nc3ccccc3[nH]2)CC1 (stereo not drawn) (as salt: oxalate) [Example 113, {(1H-benzimidazol-2-yl)[3-(2-fluorobenzyloxy)phenyl]methyl}(1-methylpiperidin-4-yl)amine] | 118 °C |
| C=CCOc1cccc(C(NC2CCN(C)CC2)c2nc3ccccc3[nH]2)c1 (stereo not drawn) (as salt: oxalate) [Example 112, [(3-allyloxyphenyl)(1H-benzimidazol-2-yl)methyl](1-methylpiperidin-4-yl)amine] | 125 °C |

| SMILES | melting point |
| --- | --- |
| COc1cccc(C(OC2CCN(C)CC2)c2nc3ccccc3s2)c1 (stereo not drawn) (as salt: hydrochloride) [Example 11, 2-[(3-methoxyphenyl)(1-methylpiperidin-4-yloxy)methyl]benzothiazole] | 182 °C |
| CCc1cccc(C(OC2CCN(C)CC2)c2nc3ccccc3s2)c1 (stereo not drawn) (as salt: oxalate) [Example 152, 2-[(3-ethylphenyl)(1-methylpiperidin-4-yloxy)methyl]benzothiazole] | 123 °C |
| CN1CCC(OC(c2cccc(-n3cccn3)c2)c2nc3ccccc3s2)CC1 (stereo not drawn) (as salt: oxalate) [Example 147, 2-[(1-methylpiperidin-4-yloxy)(3-pyrazol-1-ylphenyl)methyl]benzothiazole] | 89 °C |
| CN1CCC(OC(c2cccc(CCCCCCN)c2)c2nc3ccccc3s2)CC1 (stereo not drawn) (as salt: oxalate) [Example 325, 6-{3-[benzothiazol-2-yl(1-methylpiperidin-4-yloxy)methyl]phenyl}hexylamine] | 115 °C |
| CN1CCC(OC(c2ccc3ccsc3c2)c2nc3ccccc3[nH]2)CC1 (stereo not drawn) (as salt: oxalate) [Example 556, 2-[benzo[b]thiophen-6-yl(1-methylpiperidin-4-yloxy)methyl]-1H-benzimidazole] | 160 °C |
| CN1CCC(NC(c2cccc(SCc3ccccc3)c2)c2nc3ccccc3[nH]2)CC1 (stereo not drawn) (as salt: oxalate) [Example 104, [(1H-benzimidazol-2-yl)(3-benzylsulfanylphenyl)methyl](1-methylpiperidin-4-yl)amine] | 127 °C |
| CN1CCC(OC(c2ccc3c(c2)OCCO3)c2nc3ccccc3s2)CC1 (stereo not drawn) (as salt: hydrochloride) [Example 10, 2-[(2,3-dihydrobenzo[1,4]dioxin-6-yl)(1-methylpiperidin-4-yloxy)methyl]benzothiazole] | 71 °C |
| CN1CCC(OC(c2cccc(OCCN3CCN(C(=O)OC(C)(C)C)CC3)c2)c2nc3ccccc3s2)CC1 (stereo not drawn) (as salt: oxalate) [Example 329, 4-(2-{3-[benzothiazol-2-yl(1-methylpiperidin-4-yloxy)methyl]phenoxy}ethyl)piperazine-1-carboxylic acid tert-butyl ester] | 90 °C |
| CN1CCC(OC(c2nc3ccccc3s2)c2c(F)cc(Cl)cc2F)CC1 (stereo not drawn) (as salt: oxalate) [Example 532] | 158 °C |
| CN1CCC(OC(c2cccc(C(=O)N(C)c3ccccc3)c2)c2nc3ccccc3s2)CC1 (stereo not drawn) (as salt: oxalate) [Example 223, 3-[benzothiazol-2-yl(1-methylpiperidin-4-yloxy)methyl]-N-methyl-N-phenylbenzamide] | 125 °C |
| CN1CCC(OC(c2cccc(OCc3cccc(C(F)(F)F)c3)c2)c2nc3ccccc3s2)CC1 (stereo not drawn) (as salt: oxalate) [Example 187, 2-{(1-methylpiperidin-4-yloxy)[3-(3-trifluoromethyl-benzyloxy)phenyl]methyl}benzothiazole] | 80 °C |
| CN1CCC(OC(c2cccc(CCCCNC(=N)N)c2)c2nc3ccccc3s2)CC1 (stereo not drawn) (as salt: hydrochloride) [Example 374, N-(4-{3-[benzothiazol-2-yl(1-methylpiperidin-4-yloxy)methyl]phenyl}butyl)guanidine] | 120 °C |
| CN1CCC(OC(c2cccc(-c3ccccc3CO)c2)c2nc3ccccc3s2)CC1 (stereo not drawn) (as salt: oxalate) [Example 127, {3′-[benzothiazol-2-yl(1-methylpiperidin-4-yloxy)methyl]biphenyl-2-yl}methanol] | 206 to 207 °C |
| CN1CCC(OC(c2ccc3ccccc3c2)c2nc3ccccc3s2)CC1 (stereo not drawn) (as salt: hydrochloride) [Example 18, 2-[(1-methylpiperidin-4-yloxy)naphthalen-2-ylmethyl]benzothiazole] | 198 °C |
| CN1CCC(OC(c2cccc(OCCCCCN)c2)c2nc3ccccc3[nH]2)CC1 (stereo not drawn) (as salt: oxalate) [Example 400, 5-{3-[(1H-benzimidazol-2-yl)(1-methylpiperidin-4-yloxy)methyl]phenoxy}pentylamine] | 111 °C |
| CN1CCC(OC(c2cccc(C(=O)N(C)Cc3ccccc3)c2)c2nc3ccccc3s2)CC1 (stereo not drawn) (as salt: oxalate) [Example 219, 3-[benzothiazol-2-yl(1-methylpiperidin-4-yloxy)methyl]-N-benzyl-N-methylbenzamide] | 103 °C |
| CN1CCC(OC(c2ccc(OC(F)(F)F)cc2)c2nc3ccccc3s2)CC1 (stereo not drawn) (as salt: oxalate) [Example 24, 2-[(1-methylpiperidin-4-yloxy)(4-trifluoromethoxyphenyl)methyl]benzothiazole] | 155 °C |
| CN1CCC(OC(c2cccc(N3CCC(CO)C3)c2)c2nc3ccccc3s2)CC1 (stereo not drawn) (as salt: oxalate) [Example 404, (1-{3-[benzothiazol-2-yl(1-methylpiperidin-4-yloxy)methyl]phenyl}pyrrolidin-3-yl)methanol] | 106 °C |
| CN1CCC(OC(c2cccc(OCCCCN3CCOCC3)c2)c2nc3ccccc3s2)CC1 (stereo not drawn) (as salt: oxalate) [Example 322, 2-{(1-methylpiperidin-4-yloxy)[3-(4-morpholin-4-yl-butoxy)phenyl]methyl}benzothiazole] | 61 °C |
